Source: ChEMBL document CHEMBL5291721, “A preclinical secondary pharmacology resource illuminates target-adverse drug reaction associations of marketed drugs” (Nat Commun, 2023)

What was measured:
[1] = molecular target: T1, 5-hydroxytryptamine receptor 1A (Homo sapiens, UniProt P08908); assay type: functional, cell-based
T1 sequence (P08908 whole entry): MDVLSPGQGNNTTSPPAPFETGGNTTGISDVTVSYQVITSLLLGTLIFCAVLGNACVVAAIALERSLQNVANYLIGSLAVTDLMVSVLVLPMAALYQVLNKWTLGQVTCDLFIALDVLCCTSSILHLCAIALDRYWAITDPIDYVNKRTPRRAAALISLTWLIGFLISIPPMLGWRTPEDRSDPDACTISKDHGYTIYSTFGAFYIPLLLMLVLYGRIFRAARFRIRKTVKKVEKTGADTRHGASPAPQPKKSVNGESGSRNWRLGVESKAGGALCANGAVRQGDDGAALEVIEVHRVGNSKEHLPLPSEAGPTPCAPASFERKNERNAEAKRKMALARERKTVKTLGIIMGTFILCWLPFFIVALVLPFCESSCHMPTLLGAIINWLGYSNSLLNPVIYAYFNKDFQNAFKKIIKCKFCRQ

[2] = molecular target: T2, Cholecystokinin receptor type A (Homo sapiens, UniProt P32238)
T2 sequence (P32238 whole entry): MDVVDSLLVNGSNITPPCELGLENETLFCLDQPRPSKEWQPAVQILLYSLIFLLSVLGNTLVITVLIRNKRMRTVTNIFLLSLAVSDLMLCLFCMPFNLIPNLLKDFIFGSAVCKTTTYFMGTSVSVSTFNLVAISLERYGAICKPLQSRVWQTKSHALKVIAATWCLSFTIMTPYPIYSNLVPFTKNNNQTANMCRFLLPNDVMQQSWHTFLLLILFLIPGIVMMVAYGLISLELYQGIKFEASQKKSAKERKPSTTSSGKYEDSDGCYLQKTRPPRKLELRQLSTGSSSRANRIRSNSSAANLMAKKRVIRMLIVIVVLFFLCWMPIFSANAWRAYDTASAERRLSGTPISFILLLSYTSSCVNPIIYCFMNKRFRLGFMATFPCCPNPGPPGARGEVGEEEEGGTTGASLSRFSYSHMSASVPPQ

Motilin receptor = Motilin receptor (Homo sapiens, UniProt O43193)
[3] = molecular target: 5-hydroxytryptamine receptor 2B (Homo sapiens, UniProt P41595); assay type: functional, cell-based
[4] = molecular target: T3, Muscarinic acetylcholine receptor M2 (Homo sapiens, UniProt P08172); assay type: functional, cell-based
T3 sequence (P08172 whole entry): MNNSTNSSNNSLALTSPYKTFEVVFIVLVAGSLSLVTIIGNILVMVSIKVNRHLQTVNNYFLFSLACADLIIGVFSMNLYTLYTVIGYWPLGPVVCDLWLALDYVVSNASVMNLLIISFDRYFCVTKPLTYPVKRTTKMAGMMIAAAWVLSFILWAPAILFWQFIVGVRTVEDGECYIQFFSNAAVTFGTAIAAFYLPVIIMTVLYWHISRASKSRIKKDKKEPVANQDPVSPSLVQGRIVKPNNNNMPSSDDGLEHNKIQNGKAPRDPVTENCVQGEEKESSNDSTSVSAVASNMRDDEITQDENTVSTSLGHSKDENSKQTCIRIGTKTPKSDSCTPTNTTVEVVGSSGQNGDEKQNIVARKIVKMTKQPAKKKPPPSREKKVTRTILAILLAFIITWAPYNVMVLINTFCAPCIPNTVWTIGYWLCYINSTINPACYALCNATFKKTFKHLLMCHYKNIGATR

[5] = molecular target: Beta-2 adrenergic receptor (Homo sapiens, UniProt P07550)
Also: assay procedure not described here.

Motilin receptor, sequence (O43193 whole entry): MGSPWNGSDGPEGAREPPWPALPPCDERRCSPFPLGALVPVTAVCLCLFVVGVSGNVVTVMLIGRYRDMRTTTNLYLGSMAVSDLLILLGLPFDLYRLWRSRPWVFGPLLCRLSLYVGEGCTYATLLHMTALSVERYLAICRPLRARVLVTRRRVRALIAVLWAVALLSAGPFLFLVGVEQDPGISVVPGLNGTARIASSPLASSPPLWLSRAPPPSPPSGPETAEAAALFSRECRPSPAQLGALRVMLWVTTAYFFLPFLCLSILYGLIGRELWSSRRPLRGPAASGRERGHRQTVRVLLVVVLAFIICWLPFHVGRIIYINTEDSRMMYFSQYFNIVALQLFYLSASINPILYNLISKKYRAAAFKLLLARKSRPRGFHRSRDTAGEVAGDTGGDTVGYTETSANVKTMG
Beta-2 adrenergic receptor, sequence (P07550 whole entry): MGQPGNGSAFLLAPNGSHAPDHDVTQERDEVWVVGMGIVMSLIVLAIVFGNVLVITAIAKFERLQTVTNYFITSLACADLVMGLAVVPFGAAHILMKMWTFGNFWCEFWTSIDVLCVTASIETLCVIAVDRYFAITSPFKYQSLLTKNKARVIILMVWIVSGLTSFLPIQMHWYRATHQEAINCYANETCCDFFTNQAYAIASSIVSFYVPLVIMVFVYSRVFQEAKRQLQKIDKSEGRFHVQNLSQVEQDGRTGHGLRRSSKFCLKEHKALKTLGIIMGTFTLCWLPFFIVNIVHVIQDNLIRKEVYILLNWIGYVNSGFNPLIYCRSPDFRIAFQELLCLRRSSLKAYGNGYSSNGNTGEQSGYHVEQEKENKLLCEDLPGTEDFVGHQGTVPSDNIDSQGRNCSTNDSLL
5-hydroxytryptamine receptor 2B, sequence (P41595 whole entry): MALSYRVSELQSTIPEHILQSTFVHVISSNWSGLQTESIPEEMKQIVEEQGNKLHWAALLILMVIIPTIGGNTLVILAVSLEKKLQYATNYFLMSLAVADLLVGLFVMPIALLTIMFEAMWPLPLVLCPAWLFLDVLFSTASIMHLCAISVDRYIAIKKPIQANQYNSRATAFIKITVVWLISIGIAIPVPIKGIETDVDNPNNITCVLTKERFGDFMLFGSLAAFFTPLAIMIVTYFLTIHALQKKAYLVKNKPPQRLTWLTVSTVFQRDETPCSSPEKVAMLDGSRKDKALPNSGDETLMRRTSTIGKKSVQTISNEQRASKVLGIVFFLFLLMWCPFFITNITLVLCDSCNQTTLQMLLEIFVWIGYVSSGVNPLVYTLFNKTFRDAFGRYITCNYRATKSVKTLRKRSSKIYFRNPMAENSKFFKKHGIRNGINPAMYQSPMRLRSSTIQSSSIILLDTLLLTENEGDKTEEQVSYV

Structure (SMILES) | AC50 [1] | AC50 [2] | AC50 (Motilin receptor) | AC50 [3] | AC50 [4] | AC50 [5]
CC(C)Cc1ccc(CC(=O)O)cc1 [IBUFENAC] | > 30 µM | > 30 µM | > 30 µM | > 30 µM | > 30 µM | –
CC(C)NNC(=O)c1ccncc1 [IPRONIAZID] | > 30 µM | > 30 µM | > 30 µM | > 30 µM | > 30 µM | –
NC[C@H]1O[C@H](O[C@H]2[C@H](O)[C@@H](O[C@H]3O[C@H](CO)[C@@H](O)[C@H](N)[C@H]3O)[C@H](N)C[C@@H]2N)[C@H](O)[C@@H](O)[C@@H]1O [KANAMYCIN] | > 10 µM | > 10 µM | > 10 µM | > 10 µM | > 10 µM | > 10 µM
CN1C(=O)CC(C)(c2ccccc2)C1=O (stereo not drawn) [METHSUXIMIDE] | > 10 µM | > 10 µM | > 10 µM | > 10 µM | > 10 µM | > 10 µM
C[C@H]1C[C@@H]2[C@H]([C@@H](O)C[C@@]3(C)[C@H]2CC[C@]3(O)C(=O)CO)[C@@]2(C)C=CC(=O)C=C12 [METHYLPREDNISOLONE] | > 10 µM | > 10 µM | > 10 µM | > 10 µM | > 10 µM | > 10 µM
CCN(CC)CCNC(=O)c1cc(Cl)c(N)cc1OC [METOCLOPRAMIDE] | > 10 µM | > 30 µM | > 10 µM | > 10 µM | – | > 10 µM
CC(C)(C(=O)c1cccnc1)c1cccnc1 [METYRAPONE] | > 10 µM | > 10 µM | > 10 µM | > 10 µM | > 10 µM | > 10 µM
Cc1cccc(C)c1OCC(C)N (stereo not drawn) [MEXILETINE] | > 30 µM | > 30 µM | > 30 µM | > 30 µM | > 30 µM | –
NC(=O)c1ncn([C@@H]2O[C@H](CO)[C@@H](O)[C@H]2O)c1O [MIZORIBINE] | > 30 µM | > 30 µM | > 30 µM | > 30 µM | > 30 µM | –
CCc1nn(CCCN2CCN(c3cccc(Cl)c3)CC2)c(=O)n1CCOc1ccccc1 [NEFAZODONE] | 2 µM | 13.3 µM | > 10 µM | > 10 µM | – | > 10 µM
COC(=O)C1=C(C)NC(C)=C(C(=O)OCC(C)C)C1c1ccccc1[N+](=O)[O-] (stereo not drawn) [NISOLDIPINE] | > 10 µM | > 10 µM | > 10 µM | > 10 µM | > 10 µM | > 10 µM
NC1=NC(=O)C(c2ccccc2)O1 (stereo not drawn) [PEMOLINE] | > 10 µM | > 30 µM | > 10 µM | > 10 µM | > 10 µM | > 10 µM
CC[C@H](C)C(=O)O[C@H]1C[C@H](O)C=C2C=C[C@H](C)[C@H](CC[C@@H](O)C[C@@H](O)CC(=O)O)[C@H]21 [PRAVASTATIN] | > 30 µM | > 30 µM | > 30 µM | > 30 µM | > 30 µM | > 10 µM
CNC(=O)c1cc(Oc2ccc(NC(=O)Nc3ccc(Cl)c(C(F)(F)F)c3)cc2)ccn1 [SORAFENIB] | – | > 30 µM | 2.8 µM | – | > 30 µM | > 30 µM
CC(C(=O)O)c1ccc(C(=O)c2cccs2)cc1 (stereo not drawn) [SUPROFEN] | > 10 µM | > 10 µM | > 10 µM | > 10 µM | > 10 µM | > 10 µM
Cc1ccc(C(=O)c2cc(O)c(O)c([N+](=O)[O-])c2)cc1 [TOLCAPONE] | > 10 µM | > 10 µM | > 10 µM | > 10 µM | > 10 µM | > 10 µM
OCc1cc([C@@H](O)CNCCCCCCOCCOCc2c(Cl)cccc2Cl)ccc1O [VILANTEROL] | > 30 µM | > 30 µM | 14 µM | > 30 µM | > 30 µM | –
